Test results as given in patent US11225481B2 (Centre national de la recherche scientifique, priority 2015, dated 2022).

Legend:
[1] = target: T1, BRD4(BD2) (Homo sapiens, UniProt O60885); assay: HTRF bromodomain selectivity profile; type: binding; conditions: Table 3 selectivity profile
T1 construct: purchased BPS Bioscience
Procedure: (§1) HTRF assays were performed in white 384 Well Small Volume™ HiBase Polystyrene Microplates (Greiner) with a total working volume of 20 μL. Compounds were dispensed, with 200 nL per well (1% final DMSO), from a concentration stock of 1 mM in 100% DMSO and with serial DMSO dilutions, using a Mosquito Crystal pipetting robot platform (TTP labtech). The IC50 measurements were performed in triplicates (Table 2 and 3). All HTRF reagents were purchased from CisBio Bioassays and reconstituted according to the supplier protocols. For each assay 14.7 μL of mix 1 (protein+peptide) is added in the assay wells, containing previously dispensed inhibitors, according to the final concentration and buffer described in Table 4, using a Biomek NX MC pipetting robot (Beckman). Then, 5.1 μL of mix 2 (donnor+acceptor) is added. HTRF signals were measured, after a final incubation (overnight at room temperature), using a PHERAstar FS (BMG Labtech) with an excitation filter at 337 nm and fluorescence wavelength measurement at 620 and 665 nm, an integration delay of 60 μs and an integration time of 500 μs. Results were analyzed with a two-wavelengths signal ratio: [intensity (665 nm)/intensity (620 nm)]*10^4. Percentage of inhibition was calculated using the following equation: % inhibition=[(compound signal)−(min signal)]/[(max signal)−(min signal)]*100, where ‘max signal’ is the signal ratio with the compound vehicle alone (DMSO) and ‘min signal’ the signal ratio without peptide.
(§2) Selectivity profiles of bromodomain inhibitors were performed as described in HTRF screen section. […] HTRF detection reagents (EPIgeneous™ Binding Domain kits) were purchased from Cisbio Bioassays and used according to supplier's protocol. GST tagged bromodomain proteins were purchased from BPS Bioscience and histone peptide from Anaspec.

[2] = target: T2, BRD2(BD2) (Homo sapiens, UniProt P25440); assay: HTRF bromodomain selectivity profile; type: binding; conditions: Table 3 selectivity profile
T2 construct: purchased BPS Bioscience
Procedure: as §1, §2

[3] = target: T3, BRDT(BD1) (Homo sapiens, UniProt Q58F21); assay: HTRF bromodomain selectivity profile; type: binding; conditions: Table 3 selectivity profile
T3 construct: purchased BPS Bioscience
Procedure: as §1, §2

[4] = target: T4, BRD2(BD1) (Homo sapiens, UniProt P25440); assay: HTRF bromodomain selectivity profile; type: binding; conditions: Table 3 selectivity profile
T4 construct: purchased BPS Bioscience
Procedure: as §1, §2

[5] = test system: Jurkat cells; assay: Cell Titer-Glo cell viability (cytotoxicity experiments); type: cell-based; conditions: Homo sapiens, 72 h incubation at 37° C., read-out: EC50, Jurkat T cells viability
Procedure: The human leukemia cell line Jurkat (ATCC® TIB-152) was maintained in RPMI-1640 medium supplemented with 10% FBS at 37° C. and 5% CO2. Human osteosarcoma cell line (U2OS, ATCC® HTB-96™) was maintained in DMEM supplemented with 10% FBS at 37° C. and 5% CO2.
In antiproliferative assays, compounds were assayed for their growth inhibiting activity towards the described cancer cell lines using the Cell Titer-Glo Luminescent Cell Viability Assay as described by the manufacturer (Promega Corporation). Briefly, […] cells were plated onto 96 well-plates (white with clear bottom (3610, Corning Costar)) in 100 μL media per well immediately before assay. Compounds were added at different concentrations (ranging from 100 to 0.05 μM) to each well and cell cultures were incubated 37° C. during 72 h. Vehicle (DMSO) was used as control and all compounds were tested in constant percentage of DMSO (1%). After addition of 50 μL Cell Titer-GLO, Luminescence was measured using a Centro luminometer LB960 (Berthold). Dose-response curves were generated and effective dose 50 values (EC50) were calculated using non-linear regression analysis (Graph Pad Prism).

[6] = test system: c-Myc; assay: Western blot of c-Myc in Jurkat cells; type: cell-based, human; conditions: 24 h, same range of concentration as EC50
Procedure: Non-treated Jurkat cells and Jurkat cells treated during 24 h with compound of the invention 26b, or DMSO were lysed in RIPA lysis buffer (Tris HCl pH=7.5 50 mM, NaCl 150 mM, Triton 1%, SDS 0.1%, sodium deoxycholate 1%) supplemented with protease inhibitor cocktail (P8340, Sigma-Aldrich) and 1 mM PhenylMethylSulfonyl Fluoride (Sigma-Aldrich). 75 μg of protein were loaded onto 10% acrylamide SDS/PAGE and then transferred to nitrocellulose Hybond C-extra membranes, […] (GE Healthcare). The membranes were saturated with 5% (wt/vol) skim milk in TBST [Tris-buffered saline/0.1% (vol/vol) Tween 20] 1 h at room temperature and incubated with anti-myc antibody (clone 9E10, sc40 Santa Cruz) at a 1:500 dilution in 0.5% (wt/vol) skimmed milk in TBST overnight at 4° C. Membranes were then washed with TBST, incubated with an HRP-conjugated anti-mouse secondary antibody (polyclonal goat anti mouse P0447, Pierce) at a 1:20,000 dilution in TBST 1 h at room temperature. […] Quantification was performed using ImageJ software.

[7] = target: T5, BRD3(BD1) (Homo sapiens, UniProt Q15059); assay: HTRF bromodomain selectivity profile; type: binding; conditions: Table 3 selectivity profile
T5 construct: purchased BPS Bioscience
Procedure: as §1, with “Compounds” for “HTRF assays were performed in white 384 Well Small Volume™ HiBase Polystyrene Microplates (Greiner) with a total working volume of 20 μL. Compounds”, “The IC50 measurements were performed in triplicates (Table 2 and 3).” left out, “[intensity (665 nm)/intensity (620 nm)]*10^4.” left out, “peptide. For IC50 measurements, values were normalized and fitted with Prism (GraphPad software) using the following equation: […] Selectivity profiles of bromodomain inhibitors were performed as described in HTRF screen section. […] HTRF detection reagents (EPIgeneous™ Binding Domain kits) were purchased from Cisbio Bioassays and used according to supplier's protocol. GST tagged bromodomain proteins were purchased from BPS Bioscience and histone peptide from Anaspec. [table]” for “peptide.”

[8] = target: T6, BRD3(BD2) (Homo sapiens, UniProt Q15059); assay: HTRF bromodomain selectivity profile; type: binding; conditions: Table 3 selectivity profile
T6 construct: purchased BPS Bioscience
Procedure: as §1, with “Compounds” for “HTRF assays were performed in white 384 Well Small Volume™ HiBase Polystyrene Microplates (Greiner) with a total working volume of 20 μL. Compounds”, “The IC50 measurements were performed in triplicates (Table 2 and 3).” left out, “[intensity (665 nm)/intensity (620 nm)]*10^4.” left out, “peptide. For IC50 measurements, values were normalized and fitted with Prism (GraphPad software) using the following equation: […] Selectivity profiles of bromodomain inhibitors were performed as described in HTRF screen section. […] HTRF detection reagents (EPIgeneous™ Binding Domain kits) were purchased from Cisbio Bioassays and used according to supplier's protocol. GST tagged bromodomain proteins were purchased from BPS Bioscience and histone peptide from Anaspec. [table]” for “peptide.”

T2 sequence (P25440 344-453 limits assumed): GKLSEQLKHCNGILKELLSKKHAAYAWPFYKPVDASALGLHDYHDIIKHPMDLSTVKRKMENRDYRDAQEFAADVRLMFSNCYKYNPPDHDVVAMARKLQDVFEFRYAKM
T6 sequence (Q15059 306-415 limits assumed): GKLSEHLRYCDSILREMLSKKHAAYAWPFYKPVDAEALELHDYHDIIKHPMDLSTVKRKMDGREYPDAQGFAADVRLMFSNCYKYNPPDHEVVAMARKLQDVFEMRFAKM
T4 sequence (P25440 74-180 limits assumed): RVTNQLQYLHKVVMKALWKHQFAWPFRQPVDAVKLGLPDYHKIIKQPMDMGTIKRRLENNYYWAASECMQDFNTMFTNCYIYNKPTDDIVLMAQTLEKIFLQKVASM
T5 sequence (Q15059 34-140 limits assumed): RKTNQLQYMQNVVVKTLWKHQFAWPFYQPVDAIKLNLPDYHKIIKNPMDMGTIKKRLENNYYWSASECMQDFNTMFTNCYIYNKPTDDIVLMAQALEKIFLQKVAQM

CCCCc1c(C)nc2nc(SCc3nc4c(c(=O)[nH]c(=O)n4CCCC)n3CC)nn2c1C [Compound 26b, 3-Butyl-8-(6-butyl-5,7-dimethyl-[1,2,4]triazolo[1,5-a]pyrimidin-2-ylsulfanylmethyl)-7-ethyl-3,7-dihydro-purine-2,6-dione]
IC50 [1]: > 100 µM
IC50 (μM) BRD4(BD2) [1]: no detectable inhibition
IC50 [2]: > 100 µM
IC50 (μM) BRD2(BD2) [2]: no detectable inhibition
IC50 [3]: > 100 µM
IC50 [4]: 59 ± 2.9 µM
EC50 [5]: 27 µM
c-Myc down regulation [6]: down regulated c-Myc
IC50 [7]: 62 ± 7.8 µM
IC50 [8]: > 100 µM
IC50 (μM) BRD3(BD2) [8]: no detectable inhibition
